Reference: ChEMBL document CHEMBL4706711, “Alkaloids of Delphinium grandiflorum and their implication to HO-induced cardiomyocytes injury” (Bioorg Med Chem, 2021)
pIC50: −log10 of the molar value. Calls of active or inactive are those of the source. The rule behind the calls is not given here.

Legend:
H9c2 [1] = assay: Cardioprotective activity against rat H9c2 cells assessed as reduction in H2O2-induced cell death at 50 uM preincubated for 24 hrs followed by H2O2 stimulation and measured after 1 hr by CCK8 assay; assay type: functional, cell-based; details: time 25.0 hrs
H9c2 [2] = assay: Cytotoxicity against rat H9c2 cells assessed as reduction in cell viability at 50 uM measured after 24 hrs by CCK8 assay; assay type: cell-based; details: h9c2, 24 h
H9c2 [3] = assay: Cardioprotective activity against rat H9c2 cells assessed as reduction in H2O2-induced cell death preincubated for 24 hrs followed by H2O2 stimulation and measured after 1 hr by CCK8 assay; assay type: functional, cell-based
H9c2 [4] = assay: Cardioprotective activity against rat H9c2 cells assessed as reduction in H2O2-induced ROS generation at 2 uM preincubated for 24 hrs followed by H2O2 stimulation and measured after 1 hr by DCFH-DA staining based flow cytometry; assay type: functional, cell-based; details: time 25.0 hrs
H9c2 [5] = assay: Cardioprotective activity against rat H9c2 cells assessed as reduction in H2O2-induced apoptosis by measuring up regulation of Bcl2 expression at 2 uM preincubated for 24 hrs followed by H2O2 stimulation and measured after 1 hr by Western blot analysis; assay type: functional, cell-based; details: time 25.0 hrs
H9c2 [6] = assay: Cardioprotective activity against rat H9c2 cells assessed as reduction in H2O2-induced apoptosis by measuring down regulation of Bax expression at 2 uM preincubated for 24 hrs followed by H2O2 stimulation and measured after 1 hr by Western blot analysis; assay type: functional, cell-based; details: time 25.0 hrs
H9c2 [7] = assay: Cardioprotective activity in H2O2-induced mitochondrial membrane potential loss in rat H9c2 cells assessed as increase in MMP level at 2 uM preincubated for 24 hrs followed by H2O2 stimulation and measured after 1 hr by JC1 staining based flow cytometry; assay type: functional, cell-based; details: time 25.0 hrs
H9c2 [8] = assay: Activation of AMPKalpha in H2O2-induced rat H9c2 cells assessed as increase in AMPKalpha phosphorylation at […] residues at 2 uM preincubated for 24 hrs followed by H2O2 stimulation and measured after 1 hr by Western blot analysis; details: filed as activator, time 25.0 hrs
H9c2 [9] = assay: Activation of AMPKalpha in H2O2-induced rat H9c2 cells assessed as reduction in AKT expression at 2 uM preincubated for 24 hrs followed by H2O2 stimulation and measured after 1 hr by Western blot analysis; details: filed as activator, time 25.0 hrs
H9c2 [10] = assay: Activation of AMPKalpha in H2O2-induced rat H9c2 cells assessed as reduction in mTOR expression at 2 uM preincubated for 24 hrs followed by H2O2 stimulation and measured after 1 hr by Western blot analysis; details: filed as activator, time 25.0 hrs

SMILES	Activity (H9c2 [1])	Activity (H9c2 [2])	pIC50 (H9c2 [3])	further results
CO[C@H]1[C@@H]2C[C@@H]3[C@H]1[C@](O)(C[C@@H]2OC)[C@@]1(O)C2[N+]([O-])=C[C@]4(CO)CC[C@H](OC)[C@@]23[C@@H]4[C@@H]1OC	inactive			
CCN1C(=O)[C@]2(CO)CC[C@H](OC)[C@]34C1[C@](O)([C@@H](OC)[C@H]23)[C@@]1(O)C[C@H](OC)[C@H]2C[C@@H]4[C@@H]1[C@H]2OC	Active	Non-Toxic	5.73	Activity (H9c2 [4]): Active; Activity (H9c2 [5]): Active; Activity (H9c2 [6]): Active; Activity (H9c2 [7]): Active; Activity (H9c2 [8]): Active; Activity (H9c2 [9]): Active; Activity (H9c2 [10]): Active
CCN1C2OC(=O)[C@]3(CO)CC[C@H](OC)C24[C@@H]2C[C@@H]5[C@H](OC)[C@@H]2[C@](O)(C[C@@H]5OC)[C@]1(O)[C@@H](OC)[C@@H]43	Active	Non-Toxic		
COC(=O)c1ccccc1NC(=O)CC(C)C(=O)O (stereo not drawn)		Non-Toxic	5.72	
CCN1C(=O)[C@]2(CO)CC[C@H](OC)[C@]34C1O[C@@](O)([C@@H](OC)[C@H]23)[C@@]1(O)C[C@H](OC)[C@@H]2C[C@@H]4[C@@H]1[C@H]2OC	Active	Non-Toxic		
CO[C@H]1[C@@H]2C[C@@H]3[C@H]1[C@](O)(C[C@@H]2OC)C(=O)[C@@H](OC)[C@@H]1[C@@]2(COC(C)=O)CC[C@H](OC)[C@@]31C=[N+]([O-])C2	inactive			
